Laboratory results from article PMC3344887 (PLoS ONE, 2012).
Where “and” joins values, the source holds several entries; their conditions need not be identical. Equal entries are not always repeated. Where two headings read alike, the source gives them in different places.

What was measured:
NE transporter [1] = details: cited from earlier work
healthy subjects [2] = assay: Circulating plasma catecholamines, clinical study; type: in vivo, humans; details: peak change from baseline, mean±SEM, 16 subjects
Method: (§1) The washout periods between the sessions were at least 10 days long.
(§2) Identical placebo (lactose) capsules were prepared. […] Drugs were administered without food.
(§3) Plasma concentrations of copeptin were also determined in this study as reported elsewhere. […] No hydrolysis was performed. Thus, the values for HMMA represent the drug concentrations of the non-conjugated metabolite. All blood samples were collected on ice and centrifuged within 10 min at 4°C. The plasma was then stored at –20°C until the analysis.

healthy subjects [3] = assay: Physiologic measures (blood pressure, heart rate, body temperature), clinical study; type: in vivo, humans; details: peak change from baseline, mean±SEM, 16 subjects
Method: as §1, §2
(§4) Physiologic measures were assessed repeatedly 4, 3, 2, and 1 h before and 0, 0.33, 0.66, 1, 1.5, 2, 2.5, 3, 4, 5, and 6 h after MDMA or placebo administration. Heart rate, systolic blood pressure, and diastolic blood pressure were measured using an OMRON M7 blood pressure monitor (OMRON Healthcare Europe, Hoofddorp, The Netherlands). Measures were taken twice per time point with an interval of 1 min, and the average was used for the analysis. Core (tympanic) temperature was assessed using a GENIUS 2 ear thermometer (Tyco Healthcare Group, Watertown, NY). […] Adverse effects were assessed using the List of Complaints (LC), which consists of 66 items that yield a total adverse effects score and reliably measure physical and general discomfort.
(§5) Clinical data values were transformed to differences from baseline. Peak effects (Emax) were determined for repeated measures. Emax values were compared using General Linear Models repeated-measures analysis of variance, with drug as within-subject factor, using Statistica 6.0 software (StatSoft, Tulsa, OK). Tukey post hoc comparisons were performed based on significant main effects of treatment. Additional analyses of variance were performed, with period as factor to exclude period effects. Correlation analyses were performed using Pearson’s correlations. The criterion for significance was p<0.05. Mean arterial pressure (MAP) was calculated from diastolic blood pressure and systolic blood pressure using the following formula: MAP = DBP+(SBP - DBP)/3.

DAT [4] = details: cited from earlier work
healthy subjects [5] = assay: 5-Dimensions of Altered States of Consciousness (5D-ASC), clinical study; type: in vivo, humans; details: p<0.001
Method: as §1, §2
(§6) The psychometric measures included Visual Analog Scales (VAS), [10], the Adjective Mood Rating Scale (AMRS), and 5-Dimensions of Altered States of Consciousness (5D-ASC), [23]. […] The VASs were presented as 100 mm horizontal lines marked “not at all" on the left and “extremely" on the right. The VASs for “closeness to others," “open," and “talkative" were bidirectional (±50 mm). The VASs were administered 4 h before and 0, 0.33, 1, 1.5, 2, 2.5, 3, 3.5, 4, and 5 h after MDMA or placebo administration. […] The AMRS contains subscales for activity, extroversion and introversion, well-being, emotional excitation, anxiety-depression, and dreaminess. The 5D-ASC rating scale measures alterations in mood, perception, experience of self in relation to the environment, and thought disorder. The 5D-ASC rating scale comprises five subscales or dimensions and 11 lower-order scales. The 5D-ASC dimension “oceanic boundlessness" (OB, 27 items) measures derealization and depersonalization associated with positive emotional states, ranging from heightened mood to euphoric exaltation. […] The global ASC score was determined by adding the OB, AED, and VR scores. The 5D-ASC scale was administered 4 h after MDMA or placebo administration.

patients = details: 60-120 mg/day; cited from earlier work
clinical = details: for AUC(0-t): AUC0-6
Method: as §2, §3
Cmax and tmax were obtained directly from the observed concentration-time curves. […] Terminal elimination half-life (t 1/2) was calculated using λz and the equation t1/2 = ln2/λz. The area under the plasma concentration-time curve up to 6 h (AUC0-6h) was calculated using the linear trapezoidal rule. The AUC0–∞ was determined by extrapolation of AUC0–6h using λz. The PK parameters were determined using the PK functions for Excel (Microsoft, Redmont, CA, USA). Plasma concentrations were only determined up to 6 h after MDMA administration because the aim of the study was to assess potential changes in MDMA plasma levels while relevant pharmacodynamic effects or MDMA were present.

SERT = SERT (Homo sapiens, UniProt P31645)
From the text: The procedures were adapted from previous studies, [3]. […] This transports the cells through the silicon oil layer to the KOH layer, thereby separating the cells from the buffer, which remains on top of the silicon oil layer. The centrifuge tubes were then transferred to liquid nitrogen. The amount of tracer that remained in the cells was quantified by cutting the frozen centrifuge tube above the KOH/oil interface and putting the tip of the tube with the cell pellet in a scintillation vial that contained 500 µl lysis buffer (0.05 M TRIS-HCl, 50 mM NaCl, 5 mM EDTA, and 1% Nonidet P-40 substitute in water). The samples were then shaken for 1 h on a rotary shaker, and 7 ml of scintillation fluid (Ultimagold, Perkin Elmer, Schwerzenbach, Switzerland) was added. Cell-associated radioactivity was then counted. […] Dose-response curves were generated using 9–11 concentrations of MDMA/MDA. […] All data points were derived from at least three independent experiments, each assayed in triplicate. The data were fit by non-linear regression, and EC50 and Emax values were calculated using Prism (GraphPad, San Diego, CA).

NE transporter [6] = details: read-out: Ki, NE transporter; rat cortex synaptosomes; cited from earlier work
healthy subjects [7] = assay: Adjective Mood Rating Scale (AMRS), clinical study; type: in vivo, humans; details: peak change from baseline, mean±SEM, 16 subjects
Method: as §1, §2, §6, §5

[8] = cited from earlier work; for Mean plasma Cmax: healthy volunteers
healthy subjects [9] = assay: Visual Analog Scales, subjective drug effects, clinical study; type: in vivo, humans; details: peak change from baseline, mean±SEM, 16 subjects
Method: as §1, §2, §6, §5

healthy subjects [10] = assay: Adverse effects, List of Complaints, clinical study
Method: as §1, §2, §4

DAT [11] = target: T1, DAT (Homo sapiens, UniProt Q01959); assay: Radioligand binding, [3H]-WIN35,428, HEK 293 membranes; parameters: expressed in transfected cells; host or cells: HEK 293 cells (Invitrogen), stably transfected
DAT [12] = target: T1, DAT; assay: cell-based
NET [13] = target: T2, NET (Homo sapiens, UniProt P23975); assay: Radioligand binding, [3H]-nisoxetine, HEK 293 membranes; parameters: expressed in transfected cells; host or cells: HEK 293 cells (Invitrogen), stably transfected
NET [14] = target: T2, NET; assay: [3H]-NE uptake inhibition, method A (silicon oil); type: cell-based; parameters: expressed in transfected cells; host or cells: HEK 293 cells (Invitrogen), stably transfected
NCCc1c[nH]c2ccc(O)cc12 = assay: cells, lysate or membranes; details: other: method A
[15] = substrate: NCCc1ccc(O)c(O)c1; assay: cells, lysate or membranes; details: other: method A
[16] = Duloxetine-MDMA session, mean±SEM, n=16
[17] = Placebo-MDMA session, mean±SEM, n=16
[18] = duloxetine-MDMA vs placebo-MDMA

T2 sequence (P23975 whole entry): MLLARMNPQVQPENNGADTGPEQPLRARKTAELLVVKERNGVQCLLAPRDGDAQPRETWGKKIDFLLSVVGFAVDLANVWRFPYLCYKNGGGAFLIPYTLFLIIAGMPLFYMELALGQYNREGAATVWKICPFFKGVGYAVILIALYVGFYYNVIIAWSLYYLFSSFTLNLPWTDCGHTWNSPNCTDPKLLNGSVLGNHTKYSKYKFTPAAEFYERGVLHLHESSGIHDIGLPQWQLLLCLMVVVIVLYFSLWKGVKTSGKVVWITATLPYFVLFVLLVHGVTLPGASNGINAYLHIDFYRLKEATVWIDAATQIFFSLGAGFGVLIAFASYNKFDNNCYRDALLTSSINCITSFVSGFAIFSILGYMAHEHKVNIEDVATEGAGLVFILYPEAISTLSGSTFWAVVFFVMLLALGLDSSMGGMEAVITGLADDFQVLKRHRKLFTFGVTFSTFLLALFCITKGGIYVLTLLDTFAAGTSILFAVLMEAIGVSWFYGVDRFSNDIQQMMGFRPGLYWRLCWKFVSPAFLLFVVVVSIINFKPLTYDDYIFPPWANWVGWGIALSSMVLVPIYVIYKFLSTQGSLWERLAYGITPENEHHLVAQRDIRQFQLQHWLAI
Chain of SERT (P31645 whole entry): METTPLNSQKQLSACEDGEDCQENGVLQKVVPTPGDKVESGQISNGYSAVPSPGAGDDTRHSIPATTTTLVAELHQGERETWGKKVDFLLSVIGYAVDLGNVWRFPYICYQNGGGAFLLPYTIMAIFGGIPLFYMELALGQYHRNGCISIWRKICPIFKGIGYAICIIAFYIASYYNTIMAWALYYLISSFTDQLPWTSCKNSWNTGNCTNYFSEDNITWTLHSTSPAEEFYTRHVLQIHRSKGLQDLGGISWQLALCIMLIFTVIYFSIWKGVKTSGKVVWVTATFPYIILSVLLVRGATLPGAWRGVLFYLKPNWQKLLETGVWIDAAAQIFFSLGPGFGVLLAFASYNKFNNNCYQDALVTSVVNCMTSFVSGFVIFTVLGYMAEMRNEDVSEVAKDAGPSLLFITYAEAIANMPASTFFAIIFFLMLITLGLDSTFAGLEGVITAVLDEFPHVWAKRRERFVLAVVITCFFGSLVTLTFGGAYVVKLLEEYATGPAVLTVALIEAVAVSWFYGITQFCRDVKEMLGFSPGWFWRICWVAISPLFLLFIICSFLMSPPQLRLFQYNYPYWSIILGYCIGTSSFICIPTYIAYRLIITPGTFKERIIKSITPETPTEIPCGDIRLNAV

CNCC[C@H](Oc1cccc2ccccc12)c1cccs1 [Duloxetine]
Block of thyramine-induced increases in systolic blood pressure (NE transporter [1]; 60 mg for 14 days): not able to block
Suppression of blood pressure increase due to thyramine (NE transporter [1]; dose of 80-120 mg): effective in suppressing
Circulating Epinephrine, Emax (healthy subjects [2]): 0.46 ± 0.10 nM
Circulating Norepinephrine, Emax (healthy subjects [2]): -0.18 ± 0.07 nM
DPB, Emax (healthy subjects [3]; diastolic blood pressure): 6.00±0.97 mm Hg
MAP, Emax (healthy subjects [3]; mean arterial pressure): 5.11±1.01 mm Hg
Heart rate, Emax (healthy subjects [3]): 5.06±1.27 beats/min
SBP, Emax (healthy subjects [3]; systolic blood pressure): 6.19±1.42 mm Hg
Body temperature, Emax (healthy subjects [3]; tympanic): 0.19±0.04 °C
Lower potency at DAT compared with SERT and NET (DAT [4]): 10- to 100 fold
Effect on MDMA's effects on the total ASC score (healthy subjects [5]): robustly reduced
Incidence of constipation (patients): 11%
Incidence of decreased appetite (patients): 8%
Incidence of dizziness (patients): 9-11%
Incidence of dry mouth (patients): 15-18%
Incidence of fatigue (patients): 14%
Incidence of headache (patients): 20%
Incidence of insomnia (patients): 11-15%
Incidence of nausea (patients): 20-29%
Incidence of sweating (patients): 6%
Cmax (clinical; human, in vivo): 0.112 ± 0.00706 µg/mL
concentration at 120 min (clinical; human, in vivo): 0.314 ± 0.0025 µM
Cmax (clinical; human, in vivo, 120 mg): 0.107 ± 0.0103 µg/mL
AUC(0-t) (clinical; human, in vivo): 0.8 ± 0.0744 µg·h/mL
AUC(0-inf) (clinical; human, in vivo, AUC(0-∞)): 1.96 ± 0.23 µg·h/mL
Cmax (clinical; human, in vivo, Plasma concentration Cmax, text of b61): 112 ng/mL and 380 nM
half-life (clinical; human, in vivo, T1/2): 11 ± 1.04 h
Tmax (clinical; human, in vivo, Tmax): 5.14 ± 0.29 h
Effect on MDMA- and MDA-induced 5-HT release (SERT): completely blocked
Ki (NE transporter [6]): 0.0021 µM
AMRS Activity, Emin (healthy subjects [7]): −2.69±0.69
AMRS Dreaminess, Emax (healthy subjects [7]): 1.35±0.35
AMRS Emotional excitation, Emax (healthy subjects [7]): 0.69±0.27
AMRS Extroversion, Emax (healthy subjects [7]): 0.38±0.16
AMRS Introversion, Emax (healthy subjects [7]): 1.13±0.30
AMRS Well-being, Emax (healthy subjects [7]): 0.38±0.16
Mean Cmax at steady state ([8]; 40 mg once daily): 0.035 µg/mL
Trough level at 24h at steady state ([8]; 40 mg once daily): approximately 10 ng/mL
Increase of AUC ([8]; after pretreatment with paroxetine): 1.6 fold
Elimination half-life [8]: 12 h
Tmax [8]: 6 h
Mean Cmax, population PK ([8]; daily 60 mg): 0.03 to 0.06 µg/mL
Mean trough level at 24h, population PK ([8]; daily 60 mg): ~25 ng/mL
Peak level at steady state ([8]; patients, daily 120 mg): 100 ng/mL
Trough level at steady state ([8]; patients, daily 120 mg): 50 ng/mL
Mean plasma Cmax ([8]; single oral dose 30 mg): 0.022 µg/mL
Mean plasma Cmax ([8]; single oral dose 60 mg): 0.044 µg/mL
Mean plasma Cmax ([8]; single oral dose 90 mg): 0.061 µg/mL
VAS Any drug effect, Emax (healthy subjects [9]): 6.00±2.52
VAS Closeness, Emax (healthy subjects [9]): 0.00±0.00
VAS Drug high, Emax (healthy subjects [9]): 4.81±2.93
VAS Drug liking, Emax (healthy subjects [9]): 7.56±4.43
VAS Good drug effect, Emax (healthy subjects [9]): 8.75±5.01
VAS Open, Emax (healthy subjects [9]): 0.38±0.38
VAS Stimulated, Emax (healthy subjects [9]): 5.13±2.45
VAS Talkative, Emax (healthy subjects [9]): 0.31±0.31
List of Complaints (total score), Acute adverse effects (healthy subjects [10]; at 3 h, change from baseline, mean±SEM, 16 subjects): −1.81±1.09
List of Complaints (total score), Sub-acute adverse effects (healthy subjects [10]; at 24 h, change from baseline, mean±SEM, 16 subjects): −2.88±1.35
Adverse effects produced (healthy subjects [10]; clinical study): daytime somnolence and moderate insomnia

CNC(C)Cc1ccc(O)c(OC)c1 (stereo not drawn) [HMMA, 4-hydroxy-3-methoxymethamphetamine]
Cmax (clinical; Duloxetine-MDMA session (duloxetine 120 mg 16 and 4 h before MDMA 125 mg), plasma, mean±SEM, n=16): 0.002 ± 0.00038 µg/mL
AUC0-6 (clinical; [16]): 0.00814 ± 0.00145 µg·h/mL
Tmax (clinical; [16]): 1.89 ± 0.25 h
Cmax (clinical; Placebo-MDMA session (MDMA 125 mg), plasma, mean±SEM, n=16): 0.00336 ± 0.00034 µg/mL
AUC0-6 (clinical; [17]): 0.01357 ± 0.00158 µg·h/mL
Tmax (clinical; [17]): 1.84 ± 0.17 h
Decrease in AUC0-6h by duloxetine (clinical; [18]): 48±6%
Decrease in Cmax by duloxetine (clinical; [18]): 46±6%

CC(N)Cc1ccc2c(c1)OCO2 (stereo not drawn) [MDA, 3,4-methylenedioxyamphetamine]
Ki (DAT [11]): 26.4 ± 4.24 µM
Cmax (clinical; human, in vivo): 0.0107 ± 0.00072 µg/mL
Cmax (clinical; human, in vivo, 125 mg): 0.0118 ± 0.0007 µg/mL
AUC(0-t) (clinical; human, in vivo): 0.0466 ± 0.00302 µg·h/mL
Tmax (clinical; human, in vivo, Tmax): 5.5 ± 0.22 h
Ki (DAT [12]): 11 µM
Ki (NET [13]): 17.8 ± 4.06 µM
Ki (NET [14]): 0.341 µM

CNCCCN1c2ccccc2CCc2ccccc21 [desipramine]
Block of thyramine-induced SBP responses (NE transporter [1]; no reference given): completely blocked

human SERT (Homo sapiens)
Km (NCCc1c[nH]c2ccc(O)cc12): 0.489 ± 0.147 µM

B1: human DAT (Homo sapiens) (protein)
chain: MSKSKCSVGLMSSVVAPAKEPNAVGPKEVELILVKEQNGVQLTSSTLTNPRQSPVEAQDRETWGKKIDFLLSVIGFAVDLANVWRFPYLCYKNGGGAFLVPYLLFMVIAGMPLFYMELALGQFNREGAAGVWKICPILKGVGFTVILISLYVGFFYNVIIAWALHYLFSSFTTELPWIHCNNSWNSPNCSDAHPGDSSGDSSGLNDTFGTTPAAEYFERGVLHLHQSHGIDDLGPPRWQLTACLVLVIVLLYFSLWKGVKTSGKVVWITATMPYVVLTALLLRGVTLPGAIDGIRAYLSVDFYRLCEASVWIDAATQVCFSLGVGFGVLIAFSSYNKFTNNCYRDAIVTTSINSLTSFSSGFVVFSFLGYMAQKHSVPIGDVAKDGPGLIFIIYPEAIATLPLSSAWAVVFFIMLLTLGIDSAMGGMESVITGLIDEFQLLHRHRELFTLFIVLATFLLSLFCVTNGGIYVFTLLDHFAAGTSILFGVLIEAIGVAWFYGVGQFSDDIQQMTGQRPSLYWRLCWKLVSPCFLLFVVVVSIVTFRPPHYGAYIFPDWANALGWVIATSSMAMVPIYAAYKFCSLPGSFREKLAYAIAPEKDRELVDRGEVRQFTLRHWLKV
Km [15]: 1.707 ± 0.297 µM
